Assays:
Assay type in all cases: in vivo, New Zealand white rabbits
[1] = test system: New Zealand rabbits with normal intraocular pressure; assay: Intraocular pressure reduction, normal intraocular pressure, Day 1 (Operation II); conditions: for Average intraocular pressure in both eyes: Day 1
From the text: An intraocular pressure reduction effect and potential ocular toxicity of the compound of formula (I) were inspected with rabbits with normal intraocular pressure by repeated administration of eye drops for 14 days.
Male New Zealand white rabbits, aged 97 to 127 days, weighted 2.6-3.5 kg, purchased from Pizhou Oriental Breeding Co., Ltd.
(§1) 42 male New Zealand white rabbits were randomly grouped into 7 groups according to body weights, 6 rabbits/group. Among the animals in Groups 1-7, the left eye was administrated dropwise with normal saline, and the right eye was administrated dropwise with a solvent/control/test article in an administration volume of 50 μL/eye respectively, once a day for 14 consecutive days, and the day of first administration was recorded as Day 1. The intraocular pressures of the animals were measured before administration on Day 1, as well as at 1 h, 2 h, 4 h, 6 h, 8 h and 10 h after administration on Day 1 (Table 10).

[2] = test system: New Zealand rabbits suffered with acute intraocular hypertension; assay: Intraocular pressure reduction test in acute intraocular hypertension model; conditions: for Intraocular pressure in left eye: left eye (solvent only); for Intraocular pressure in right eye: 50 μL, right eye (modelled, dosed)
From the text: Acute intraocular hypertension was induced for rabbits by injection of a viscoelastic agent into the anterior chamber, and the effects of ocular pressure reduction of the compound of formula (I) were inspected by administration of eye drops at different concentrations.
Male New Zealand white rabbits, aged 97 to 127 days, weighted 2.5 to 3.4 kg, purchased from Pizhou Oriental Breeding Co., Ltd.
50 male New Zealand white rabbits were randomly divided into 5 groups according to body weight, 10 rabbits/group. The anterior chambers of the right eyes of animals in Groups 1 to 5 were injected with medical sodium hyaluronate gel in a single dose, 100 μL/eye, to induce ocular hypertension in the animals. In 5 to 15 min after molding, the right eye was administrated dropwise with the solvent, K-115, and the test article (compounds of formula (I) of different concentrations), and the left eye was administrated dropwise with the solvent, 50 μL/eye; and the intraocular pressures of the animals in both eyes were measured before administration, as well as at 2, 4, 6, 8, and 10 h after administration, respectively.

[3] = test system: New Zealand rabbits with normal intraocular pressure; assay: Eye irritation response detection with hand-held slit lamp, 14 days eye drops; conditions: 0.25 to 4 mg/mL; 14 consecutive days; 50 μl/eye/day
Experimental: as §1
Animals were subjected to eye irritation response detection and fluorescein sodium detection (scored according to scoring criteria) in both eyes with a hand-held slit lamp before the start of test (Day −2/Day −1), before daily administration (Day 1 to Day 14), and at 1 h, 2 h, 4 h, 24 h, 48 h, and 72 h after the last administration (Day 14).
Animals were subjected to eye irritation response detection in both eyes with a handheld slit lamp on Day −2 to Day −1 before the start of test, before first administration every day (Day 1 to Day 14), and at 1 h, 2 h, 4 h, 24 h, 48 h, and 72 h after the last administration. The scoring criteria were as follows: […]

Cc1ccc(C(=O)OCn2cc(C)c3c(S(=O)(=O)N4CC[C@H](N)C4)cccc3c2=O)c(C)c1 [Compound of formula (I)]
Average intraocular pressure in both eyes ([1]; 0.25 mg/mL in right eye, 1 h after administration): 6.22 mmHg
Average intraocular pressure in both eyes ([1]; 0.25 mg/mL in right eye, 2 h after administration): 6.17 mmHg
Average intraocular pressure in both eyes ([1]; 0.25 mg/mL in right eye, 4 h after administration): 6.67 mmHg
Average intraocular pressure in both eyes ([1]; 0.25 mg/mL in right eye, 6 h after administration): 8.06 mmHg
Average intraocular pressure in both eyes ([1]; 0.25 mg/mL in right eye, 8 h after administration): 9.72 mmHg
Average intraocular pressure in both eyes ([1]; 0.25 mg/mL in right eye, 10 h after administration): 10.95 mmHg
Average intraocular pressure in both eyes ([1]; 0.25 mg/mL in right eye, before administration): 9.84 mmHg
Average intraocular pressure in both eyes ([1]; 0.5 mg/mL in right eye, 1 h after administration): 5.39 mmHg
Average intraocular pressure in both eyes ([1]; 0.5 mg/mL in right eye, 2 h after administration): 5.50 mmHg
Average intraocular pressure in both eyes ([1]; 0.5 mg/mL in right eye, 4 h after administration): 6.95 mmHg
Average intraocular pressure in both eyes ([1]; 0.5 mg/mL in right eye, 6 h after administration): 8.94 mmHg
Average intraocular pressure in both eyes ([1]; 0.5 mg/mL in right eye, 8 h after administration): 9.89 mmHg
Average intraocular pressure in both eyes ([1]; 0.5 mg/mL in right eye, 10 h after administration): 11.56 mmHg
Average intraocular pressure in both eyes ([1]; 0.5 mg/mL in right eye, before administration): 9.22 mmHg
Average intraocular pressure in both eyes ([1]; 1.0 mg/mL in right eye, 1 h after administration): 5.56 mmHg
Average intraocular pressure in both eyes ([1]; 1.0 mg/mL in right eye, 2 h after administration): 5.39 mmHg
Average intraocular pressure in both eyes ([1]; 1.0 mg/mL in right eye, 4 h after administration): 6.67 mmHg
Average intraocular pressure in both eyes ([1]; 1.0 mg/mL in right eye, 6 h after administration): 7.33 mmHg
Average intraocular pressure in both eyes ([1]; 1.0 mg/mL in right eye, 8 h after administration): 10.50 mmHg
Average intraocular pressure in both eyes ([1]; 1.0 mg/mL in right eye, 10 h after administration): 10.89 mmHg
Average intraocular pressure in both eyes ([1]; 1.0 mg/mL in right eye, before administration): 9.17 mmHg
Average intraocular pressure in both eyes ([1]; 2.0 mg/mL in right eye, 1 h after administration): 8.11 mmHg
Average intraocular pressure in both eyes ([1]; 2.0 mg/mL in right eye, 2 h after administration): 5.84 mmHg
Average intraocular pressure in both eyes ([1]; 2.0 mg/mL in right eye, 4 h after administration): 6.06 mmHg
Average intraocular pressure in both eyes ([1]; 2.0 mg/mL in right eye, 6 h after administration): 7.11 mmHg
Average intraocular pressure in both eyes ([1]; 2.0 mg/mL in right eye, 8 h after administration): 9.00 mmHg
Average intraocular pressure in both eyes ([1]; 2.0 mg/mL in right eye, 10 h after administration): 10.05 mmHg
Average intraocular pressure in both eyes ([1]; 2.0 mg/mL in right eye, before administration): 9.72 mmHg
Average intraocular pressure in both eyes ([1]; 4.0 mg/mL in right eye, 1 h after administration): 6.61 mmHg
Average intraocular pressure in both eyes ([1]; 4.0 mg/mL in right eye, 2 h after administration): 5.84 mmHg
Average intraocular pressure in both eyes ([1]; 4.0 mg/mL in right eye, 4 h after administration): 5.72 mmHg
Average intraocular pressure in both eyes ([1]; 4.0 mg/mL in right eye, 6 h after administration): 6.61 mmHg
Average intraocular pressure in both eyes ([1]; 4.0 mg/mL in right eye, 8 h after administration): 8.39 mmHg
Average intraocular pressure in both eyes ([1]; 4.0 mg/mL in right eye, 10 h after administration): 10.67 mmHg
Average intraocular pressure in both eyes ([1]; 4.0 mg/mL in right eye, before administration): 10.00 mmHg
Efficacy of single administration (conclusion) ([1]; all tested doses (0.25 to 4.0 mg/mL), compared with K-115): better efficacy
Intraocular pressure in left eye ([2]; 0.25 mg/mL group, 2 h after administration): 6.07 mmHg
Intraocular pressure in left eye ([2]; 0.25 mg/mL group, 4 h after administration): 6.60 mmHg
Intraocular pressure in left eye ([2]; 0.25 mg/mL group, 6 h after administration): 9.10 mmHg
Intraocular pressure in left eye ([2]; 0.25 mg/mL group, 8 h after administration): 11.50 mmHg
Intraocular pressure in left eye ([2]; 0.25 mg/mL group, 10 h after administration): 12.43 mmHg
Intraocular pressure in left eye ([2]; 0.25 mg/mL group, before administration): 10.53 mmHg
Intraocular pressure in right eye ([2]; 0.25 mg/mL, 2 h after administration): 8.47 mmHg
Intraocular pressure in right eye ([2]; 0.25 mg/mL, 4 h after administration): 8.60 mmHg
Intraocular pressure in right eye ([2]; 0.25 mg/mL, 6 h after administration): 11.20 mmHg
Intraocular pressure in right eye ([2]; 0.25 mg/mL, 8 h after administration): 13.37 mmHg
Intraocular pressure in right eye ([2]; 0.25 mg/mL, 10 h after administration): 13.10 mmHg
Intraocular pressure in right eye ([2]; 0.25 mg/mL, before administration): 11.43 mmHg
Intraocular pressure in left eye ([2]; 2.0 mg/mL group, 2 h after administration): 6.60 mmHg
Intraocular pressure in left eye ([2]; 2.0 mg/mL group, 4 h after administration): 7.04 mmHg
Intraocular pressure in left eye ([2]; 2.0 mg/mL group, 6 h after administration): 11.23 mmHg
Intraocular pressure in left eye ([2]; 2.0 mg/mL group, 8 h after administration): 12.84 mmHg
Intraocular pressure in left eye ([2]; 2.0 mg/mL group, 10 h after administration): 13.10 mmHg
Intraocular pressure in left eye ([2]; 2.0 mg/mL group, before administration): 11.27 mmHg
Intraocular pressure in right eye ([2]; 2.0 mg/mL, 2 h after administration): 8.52 mmHg
Intraocular pressure in right eye ([2]; 2.0 mg/mL, 4 h after administration): 11.56 mmHg
Intraocular pressure in right eye ([2]; 2.0 mg/mL, 6 h after administration): 13.81 mmHg
Intraocular pressure in right eye ([2]; 2.0 mg/mL, 8 h after administration): 12.96 mmHg
Intraocular pressure in right eye ([2]; 2.0 mg/mL, 10 h after administration): 11.96 mmHg
Intraocular pressure in right eye ([2]; 2.0 mg/mL, before administration): 11.23 mmHg
Intraocular pressure in left eye ([2]; 8.0 mg/mL group, 2 h after administration): 5.93 mmHg
Intraocular pressure in left eye ([2]; 8.0 mg/mL group, 4 h after administration): 6.43 mmHg
Intraocular pressure in left eye ([2]; 8.0 mg/mL group, 6 h after administration): 10.10 mmHg
Intraocular pressure in left eye ([2]; 8.0 mg/mL group, 8 h after administration): 11.87 mmHg
Intraocular pressure in left eye ([2]; 8.0 mg/mL group, 10 h after administration): 13.19 mmHg
Intraocular pressure in left eye ([2]; 8.0 mg/mL group, before administration): 11.20 mmHg
Intraocular pressure in right eye ([2]; 8.0 mg/mL, 2 h after administration): 7.40 mmHg
Intraocular pressure in right eye ([2]; 8.0 mg/mL, 4 h after administration): 7.97 mmHg
Intraocular pressure in right eye ([2]; 8.0 mg/mL, 6 h after administration): 8.84 mmHg
Intraocular pressure in right eye ([2]; 8.0 mg/mL, 8 h after administration): 8.60 mmHg
Intraocular pressure in right eye ([2]; 8.0 mg/mL, 10 h after administration): 8.78 mmHg
Intraocular pressure in right eye ([2]; 8.0 mg/mL, before administration): 11.53 mmHg
Intraocular pressure reduction effect (conclusion) ([2]; at different test doses (0.25, 2.0, 8.0 mg/mL), amplitude and sustained effect better than K-115): good intraocular pressure reduction effects
Eye irritation (conclusion) [3]: no irritation
